# Patent US20050221406A1, “Method, composition and device for treating starch related diseases” (priority 2004, published 2005)
# Several values for one entry are separate records, joined by “and”; a condition that tells them apart may be missing. Equal entries are not always repeated.
# Columns and labels:
# [1] = trial (i): 300 mg sodium bicarbonate per kg of body mass, 100 min before exercise; fourteen healthy male volunteers; differs from placebo and no ingestion (P<0.05)
# Experimental: A double-blind protocol was used between the (i) and (ii) trials. […] Each condition was repeated so that the volunteers underwent treadmill exercise for six times. 100 minutes before commencing treadmill exercise was allowed after ingesting substances in (i), (ii) and (iii). The volunteers exercised until fatigue. Fourteen of the volunteers completed all the tests.
# A double-blind protocol was used between the (i) and (ii) trials. […] Each condition was repeated so that the volunteers underwent treadmill exercise for six times. 100 min before commencing treadmill exercise was allowed after ingesting substances in (i), (ii) and (iii). The volunteers exercised until fatigue.
# Results: Fourteen of the volunteers completed all the tests. […] The data were analyzed using a two-way ANOVA with replicates and Tukey tests.
# [2] = Wilkes and co-workers, cited from earlier work
# [3] = four 1-minute maximal sprints at 125%, fifth interval to exhaustion; ingestion prior to exercise; cited from earlier work
# [4] = running at intensity corresponding to blood lactate of 4 mM, sustained approximately 30 minutes; cited from earlier work
# [5] = 100, 150, and 200 mg NaHCO3/kg body weight; 2-minute maximal exercise bout; cited from earlier work
# [6] = venous blood; typical time course; cited from earlier work
# [7] = Blood glucose readings, Type I diabetic patient (Tables 1 and 2); assay type: in vivo, human; conditions: Table 1, one week before starting treatment, insulin 30 iu twice a day, daily readings Mon-Sun
# Text: The patient started using the first method of treatment (day and night), then changed to the 3rd method after 2 weeks of treatment, carried n with it continuously.
# The patient was on 30 iu of insulin twice a day (60 iu/day) regardless of any reading of their glucose levels. […] After 4 weeks of continuous treatment with P.I.R.T (treatment method number three), their insulin does was reduced to 10 iu in the morning and 20 iu in the evening (30 iu per day).
Compound,"average time, treadmill exercise until fatigue [1] [s]",decrease in 800 m running time [2] [s],distance equivalent of the decrease in 800 m running time ([2]; estimated),increase of exercise duration of the final bout [3] [%],effect on time to exhaustion [4],effect on power output [5],time of maximal rise in pH bicarbonate ion concentration after ingestion [6],time pH bicarbonate ion concentration remains elevated after ingestion [6],Pre tea BG [7]
O=C([O-])O.[Na+] [sodium bicarbonate],4.01,~3,approximately 19 m,42,no effect,no significant increase,about 1.5 hours,at least 2 hours,–
insulin,–,–,–,–,–,–,–,–,23.1 mM and 26.2 mM and 18.4 mM and 22.2 mM and 19.5 mM and 19.9 mM and 17.4 mM
